Test results: US20230310376A1, “PROPHYLACTIC AND/OR THERAPEUTIC AGENT FOR IDIOPATHIC PULMONARY FIBROSIS” (ONO PHARMACEUTICAL CO., LTD., priority 2020, published 2023)
Entries after “also recorded” stand apart in the source; their conditions may differ.

Legend:
[1] = system: bleomycin-induced pulmonary fibrosis models produced using LPA3 receptor-deficient C57BL/6N mice; test: Bleomycin-induced pulmonary fibrosis model, LPA3 receptor-deficient C57BL/6N mice; format: in vivo, mouse; conditions: transpulmonary bleomycin, 3 mg/kg oral two times/day to day 21, vs medium-administered group
Protocol: (§1) Wild-type and LPA3 receptor-deficient male C57BL/6N mice (Oriental BioService, Inc., the week age at the start of the experiment: 13-week old) were used. Bleomycin hydrochloride (Nippon Kayaku Co., Ltd.) was dissolved in physiological saline (Otsuka Pharmaceutical Factory, Inc.) to prepare a 0.41-mg/mL solution. The bleomycin solution thus prepared was administered to each of the mice at a dosage volume of 75 μL through a transpulmonary route. For a normal group, physiological saline was administered at a dosage volume of 75 μL through a transpulmonary route.
(§2) On the day of first administration of bleomycin, the body weights were measured, and the mice were divided into groups equally in such a manner that a significant difference was not observed in the average values of the body weights among the groups. After the grouping, the administration of a test substance or the medium started, and the administration was performed repeatedly through an oral route at a frequency of two times/day from the day of the first administration of bleomycin to day 21. The volume of a solution to be administered was calculated on the basis of the body weight of each of the mice.
On the next day of the day of the final administration, each of the animals was subjected to the opening of the abdominal cavity under the anesthesia with a three types of mixed anesthetic agent (the intraperitoneal administration of 0.3 mg/10 mL/kg of medetomidine, 4 mg/10 mL/kg of midazolam, and 5 mg/10 mL/kg of butorphanol), and then the abdomen aorta in each of the animals was dissected to bleed to death. After the bleeding to death, the lung was excised, and the lung wet weight was measured. Subsequently, the lung was frozen. The frozen lung was homogenized, and then 11.2-N hydrochloric acid (200 μL) was added to a homogenate solution to hydrolyze the homogenate solution at about 120° C. for 34 hours. The content of hydroxyproline in the solution after the hydrolysis was measured using a hydroxyproline quantification kit (BioVision, Inc.).

LPA2 receptor = LPA2 receptor (Homo sapiens, UniProt Q9HBW0); test: LPA2 agonistic activity measurement in receptor-expressing cell strain; format: cell-based; conditions: cell strain stably expressing LPA2 receptor
human LPA1 receptor = human LPA1 receptor (Homo sapiens, UniProt Q92633); test: LPA1 agonistic activity measurement in receptor-expressing cell strain; format: cell-based; conditions: cell strain stably expressing human LPA1 receptor
[2] = system: bleomycin-induced pulmonary fibrosis model, wild-type male C57BL/6N mice; test: Bleomycin-induced pulmonary fibrosis model, wild-type C57BL/6N mice; format: in vivo, mouse; conditions: transpulmonary bleomycin, 3 mg/kg oral two times/day to day 21, vs medium-administered group
Protocol: as §1
as §2, with “mice. […]” for “mice.”

[3] = system: bleomycin-induced pulmonary fibrosis models produced using male ICR mice; test: Bleomycin-induced pulmonary fibrosis model, male ICR mice; format: in vivo, mouse; conditions: bleomycin i.v. 5 days, 0.3, 1, 3 mg/kg oral two times/day to day 28, vs medium-administered group
Protocol: Male ICR mice (Charles River Laboratories Japan, Inc., the week age at the start of experiment: 12-week old) were used. Bleomycin hydrochloride (Nippon Kayaku Co., Ltd.) was dissolved in physiological saline (Otsuka Pharmaceutical Factory, Inc.) to prepare a 3-mg/mL solution. The bleomycin solution thus prepared was administered into a tail vein of each of the mice at a dosage volume of 5 mL/kg at a frequency of 1 time/day for 5 days. For a normal group, physiological saline was administered into a tail vein at a dosage volume of 5 mL/kg at a frequency of 1 time/day for 5 days.
as §2, with “through” for “through an”, “28.” for “21.”
On the next day of the day of the final administration, each of the animals was subjected to the opening of the abdominal cavity under the anesthesia with 2% isoflurane, and then the abdomen aorta in each of the mice was dissected to bleed to death. After the bleeding to death, the right lung was excised, and the lung wet weight was measured. Subsequently, the tissues of the right lung were dried with a dry-heat sterilizer, and the dry weight of the right lung was measured. […] The weight of the product after the neutralization was measured to calculate the amount (g) of the sample after the neutralization. […]
A chloramine T reagent (1 mL) was added to an HYP standard solution (2 mL), the resultant mixture was left to stand for 20 minutes at room temperature, then a perchloric acid reagent (1 mL) was added to the solution, and then the resultant mixture was left to stand for 5 minutes at room temperature. A p-dimethylaminobenzaldehyde reagent (1 mL) was added to the solution, then the resultant mixture was warmed to 60° C. for 20 minutes, and then the absorbance of a supernatant produced by the filtration of the mixture through a filter was measured at 557 nm with a spectrophotometer to produce a standard curve.
With respect to each of the HYP content measurement samples (2 mL), the measurement of the absorbance was performed in the same manner as mentioned above, and then the HYP content (μg/mL) was calculated on the basis of the standard curve. […] The HYP amount in the right lung (μg/Lung) was calculated in accordance with the following equation. […]

Chain of human LPA1 receptor (Q92633 whole entry): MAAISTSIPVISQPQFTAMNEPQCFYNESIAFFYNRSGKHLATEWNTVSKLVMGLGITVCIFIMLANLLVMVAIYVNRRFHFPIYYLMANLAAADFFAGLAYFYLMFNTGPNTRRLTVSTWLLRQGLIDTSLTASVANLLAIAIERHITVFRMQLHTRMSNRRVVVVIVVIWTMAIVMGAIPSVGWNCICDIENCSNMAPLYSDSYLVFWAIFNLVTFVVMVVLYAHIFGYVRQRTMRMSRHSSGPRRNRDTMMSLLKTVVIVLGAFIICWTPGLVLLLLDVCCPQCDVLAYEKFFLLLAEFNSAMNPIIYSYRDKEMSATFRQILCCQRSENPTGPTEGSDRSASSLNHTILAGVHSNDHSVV
Chain of LPA2 receptor (Q9HBW0 whole entry): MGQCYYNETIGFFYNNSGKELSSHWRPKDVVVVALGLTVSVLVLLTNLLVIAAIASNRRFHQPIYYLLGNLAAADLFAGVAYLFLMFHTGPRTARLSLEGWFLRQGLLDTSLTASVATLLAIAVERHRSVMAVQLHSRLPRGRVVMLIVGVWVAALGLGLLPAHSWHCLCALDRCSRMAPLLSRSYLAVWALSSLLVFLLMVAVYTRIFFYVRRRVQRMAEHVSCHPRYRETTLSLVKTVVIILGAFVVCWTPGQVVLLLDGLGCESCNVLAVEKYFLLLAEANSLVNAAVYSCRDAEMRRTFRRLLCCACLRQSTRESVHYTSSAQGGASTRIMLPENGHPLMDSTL

Structure (SMILES): Cc1ccc(Cn2c(C(=O)O)c(CNC3CCC3)c3ccccc32)cc1 [Compound I, 3-[(Cyclobutylamino)methyl]-1-(4-methylbenzyl)-1H-indol-2-carboxylic acid]
- lung weight ([1]; FIG. 3, 3 mg/kg): does not prevent the increase in the weight of the lung
- lung weight ([1]; FIG. 3, listed as Example 1, 3 mg/kg): did not show significant difference compared with those in the medium-administered group
- HYP amount in the lung ([1]; FIG. 4, 3 mg/kg): does not prevent the increase in the amount of hydroxyproline
- HYP amount in the lung ([1]; FIG. 4, listed as Example 1, 3 mg/kg): did not show significant difference compared with those in the medium-administered group
- EC50 (LPA2 receptor): > 10 µM
- EC50 (human LPA1 receptor): > 10 µM
- lung weight ([2]; FIG. 3): smaller compared with those in the medium-administered group
- HYP amount in the lung ([2]; FIG. 4): smaller compared with those in the medium-administered group
- weight of the right lung ([3]; FIG. 1): significantly prevented the increase; also recorded: prevents the increase in the weight of the lung
- weight of the right lung ([3]; FIG. 1, listed as Example 1): lower compared with those in the medium-administered group
- HYP (hydroxyproline) amount in the right lung ([3]; FIG. 2): significantly prevented the increase; also recorded: prevents the increase in the amount of hydroxyproline
- HYP (hydroxyproline) amount in the right lung ([3]; FIG. 2, listed as Example 1): lower compared with those in the medium-administered group
